Measurements: US20250360118A1, “TREATMENT OF FIBROTIC DISORDERS WITH METABOTROPIC GLUTAMATE RECEPTOR 5 ANTAGONISTS OR/AND CANNABINOID RECEPTOR 1 ANTAGONISTS” (THE UNITED STATES OF AMERICA,AS REPRESENTED BY THE …, priority 2022, published 2025)
“Also recorded” adds a separate entry of the source.

Assays:
Type in all cases: in vivo, mice
[1] = test system: bleomycin-induced PF mouse model; test: Survival in bleomycin-induced pulmonary fibrosis mouse model
Procedure: (§1) The compounds were administered by oral gavage once daily as indicated. The vehicle was a 1:1:18 ratio of DMSO:Tween® 80:saline. Oral formulations were applied at 0.3 and 3 mg/mL concentrations to achieve doses of 3 and 30 mg/kg, respectively.
(§2) All animal procedures were conducted in accordance with the rules and regulations of the Institutional Animal Care and Use Committee of the National Institutes of Alcohol Abuse and Alcoholism (NIAAA), under the protocols of LPS-GK1. Thirteen-week-old male C57BL/6J mice were obtained from The Jackson Laboratory (Bar Harbor, Maine, USA). Grm5^−/− (mGluR5 KO) mice (JAX 003121) were purchased from The Jackson Laboratory. […] (CB1R KO) mice were generated as described in Zimmer et al., Proc. Natl. Acad. Sci. USA, 96:5780-5785 (1999). Cnr1^−/− and Grm5^−/− mice were on a C57BL/6J genetic background. Both Grm5^−/− and Cnr1^−/− mice colonies were maintained with heterozygous breeding. Mice were housed individually under a 12-hour light/dark cycle and fed a standard diet, ad libitum (Teklad NIH-31; Envigo, Huntingdon, UK).
A bleomycin-induced pulmonary fibrosis model by delivery of bleomycin via oropharyngeal aspiration was generated as described in Park et al., Am. J. Respir. Cell Mol. Biol., 62(2):178-190 (2020). Briefly, bleomycin was delivered to mice anesthetized with ketamine/xylazine through the oropharynx at 1 U/kg dose using a sterile 100 μL pipette during inspiration at a volume of 100 μL/50 g body weight. Sterile saline was used as vehicle and applied to the control groups. The animals were then allowed to recover from the anesthesia.
Survival curves were plotted using GraphPad Prism 9 software. Survival was analyzed by using Log-rank (Mantel-Cox) test for assessing the statistical difference between animal groups.

[2] = test system: bleomycin-induced PF mouse model; test: Lung function measurements (FlexiVent) in bleomycin-induced PF mouse model
Procedure: as §1
as §2, with “Mice were housed individually under a 12-hour light/dark cycle and fed a standard diet, ad libitum (Teklad NIH-31; Envigo, Huntingdon, UK).” left out
Respiratory system mechanics measurements were performed using the FlexiVent FX system (SCIREQ Inc., Montreal, Canada), which is equipped with an FX1 module and negative pressure forced expiration (NPFE) extension for mice. […] Pressure-volume (PV) curve, airway resistance, tissue damping (G), tissue elastance (H), forced expiratory volume per 0.1 seconds (FEV 0.1), forced vital capacity (FVC), inspiratory capacity (IC), and inhaled air amount (A) parameters were measured. […]

[3] = test system: bleomycin-induced PF mouse model; test: Body weight in bleomycin-induced PF mouse model; details: basimglurant 3 mg/kg oral, days 8 to 28 after single bleomycin administration, vs vehicle
Procedure: as §1, §2
A bleomycin-induced pulmonary fibrosis model by delivery of bleomycin via oropharyngeal aspiration was generated as described in Park et al., Am. J. Respir. Cell Mol. Biol., 62(2):178-190 (2020). […]

[4] = test system: bleomycin-induced PF mouse model; test: Lung hydroxyproline (fibrosis marker) in bleomycin-induced PF mouse model; details: fenobam 30 mg/kg daily oral for 14 days vs vehicle, bleomycin 1 U/kg
Procedure: as §1
as §2, with “UK). […]” for “UK).”
The degree of lung fibrosis was quantified biochemically by measuring the hydroxyproline content of lung extracts using liquid chromatography/tandem mass spectrometry (LC-MS/MS) as described in Park et al., Am. […]

[5] = basimglurant 3 mg/kg oral, days 8 to 28 after single bleomycin administration, vs vehicle

For Cc1nc(C#Cc2ccnc(Cl)c2)c(C)n1-c1ccc(F)cc1 [basimglurant], which “survival rate (in words)” value [1, 5] is on record?
Its value is “increased survival rate”.

And the pulmonary tissue stiffness [2, 5]?
The pulmonary tissue stiffness was “reduced pulmonary tissue stiffness”.

What about the body weight loss [3] of the same molecule?
Its body weight loss is “reduced body weight loss”.

Which survival rate ([1]; CTEP 3 mg/kg daily oral for 28 days after single oropharyngeal bleomycin 1 U/kg, vehicle-treated mice 50%) does the source give for Cc1nc(C#Cc2ccnc(Cl)c2)c(C)n1-c1ccc(OC(F)(F)F)cc1 [CTEP, 2-chloro-4-((2,5-dimethyl-1-(4-(trifluoromethoxy)phenyl)-1H-imidazol-4-yl)ethynyl)pyridine] here?
The survival rate was 100%.

What about the “survival (in words)” value ([1]; CTEP 3 mg/kg daily oral gavage vs vehicle, bleomycin 1 U/kg) of the same molecule?
The value was “significantly improved survival; also recorded: prevented mortality”.

Which results are given for CN1CC(=O)NC1=NC(=O)Nc1cccc(Cl)c1 [fenobam]?
fibrosis as measured by hydroxyproline level in lungs [4]: significantly attenuated fibrosis; also recorded: attenuated pulmonary fibrosis; decline in pulmonary function parameter: forced expiratory volume (FEV) at 0.1 sec. (air flow) ([2]; fenobam 30 mg/kg daily oral for 14 days vs vehicle, bleomycin 1 U/kg): significantly attenuated
